Reference: patent US20060281690A1, “Crystalline (2E,4S)-4-[(N-{[(2R)-1-isopropylpiperidin-2-yI]-carbonyl}-3-methyl-L-valyl)(methyl)amino]-2,5-dimethylhex-2-enoic acid and its pharmaceutical uses” (Eisai Co. Ltd., priority 2005, published 2006)
Where “and” joins values, the source holds several entries; their conditions need not be identical. Equal values may be shown once.

Legend:
[1] = Hygroscopicity studies (vapor sorption isotherm); format: physicochemical
[2] = Solid state stability studies, 21 days; format: physicochemical; details: for Total impurities: HPLC area-%
Description: The solid-state stability of crystalline E7974-form M1—unsolvated was evaluated for 21 days. […] In addition, a different peak appeared at only a 0.12% level for sample stored at 40° C. and exposed to 75% relative humidity.

[3] = test system: several cell lines, including human lung carcinoma, human colon carcinoma and human melanoma; details: several cell lines incl. human lung carcinoma; cited from earlier work
[4] = 25° C., visible light (6.8 million lux-hours), 21 d

| SMILES | increase in weight ([1]; at 70% RH, 25° C., FIG. 2) | deliquescence ([1]; high relative humidity (% RH), FIG. 1) | water adsorption reversibility ([1]; up to 70% RH) | hygroscopicity classification ([1]; up to 70% RH, criterion: hygroscopic = not less than 3.0% water increase at 75% RH for a week) | hygroscopicity ([1]; vapor sorption isotherm, FIG. 1) | Total impurities ([2]; 25° C., light shield, 21 d) | Wt/Wt ([2]; 25° C., light shield, 21 d, control: −20° C. light shielded sample) | Wt/Wt [2, 4] | Total impurities [2, 4] | Wt/Wt ([2]; 40° C., 75% RH, 21 d) | Total impurities ([2]; 40° C., 75% RH, 21 d) | level of a different new impurity peak ([2]; 40° C., 75% relative humidity, 21 days) | Wt/Wt ([2]; 60° C., light shield, 21 d) | Total impurities ([2]; 60° C., light shield, 21 d) | level of new impurity peaks ([2]; 21 days at 25° C. and visible light, two new peaks) | Total impurities ([2]; Initial, sum of all impurities >0.05%) | changes in the impurity profile ([2]; shielded from light, stored at 25 and 60° C., 21 days) | Total impurities ([2]; −20° C., light shield, 21 d) | antitumor activity [3] |
| --- | --- | --- | --- | --- | --- | --- | --- | --- | --- | --- | --- | --- | --- | --- | --- | --- | --- | --- | --- |
| C/C(=C\[C@H](C(C)C)N(C)C(=O)[C@@H](NC(=O)[C@H]1CCCCN1C(C)C)C(C)(C)C)C(=O)O [Crystalline E7974-form M1—unsolvated, (2E,4S)-4-[(N-{[(2R)-1-isopropylpiperidin-2-yl]carbonyl}-3-methyl-L-valyl)(methyl)amino]-2,5-dimethylhex-2-enoic acid] | 1.9% | deliquesces at high relative humidity | reversible up to 70% RH | non-hygroscopic | slightly hygroscopic | 0.76% | 100.3% | 99.9% | 0.87% | 102.2% | 0.89% | 0.12% | 100.9% | 0.78% | 0.05% and 0.09% | 0.72% | No significant changes | 0.72% |  |
| CN[C@H](C(=O)N[C@H](C(=O)N(C)[C@H](/C=C(\C)C(=O)O)C(C)C)C(C)(C)C)C(C)(C)c1cn(C)c2ccccc12 [Hemiasterlin] |  |  |  |  |  |  |  |  |  |  |  |  |  |  |  |  |  |  | exhibits antitumor activity |
